Results from patent publication US9856240B2, “Compounds that modulate intracellular calcium” (CalciMedica, Inc., priority 2011, dated 2018).

Key:
[1] = target: T1, recombinant human STIM1 and Orai1 (HEK-293 cells) (Homo sapiens, UniProt Q96D31); assay: Fluorescence-based assay of store-operated calcium entry in Orai1/STIM1 stable cells; type: cell-based; set-up: key to Orai1/STIM1 (IC50, μmol): A < 0.6 μmol; 0.6 μmol ≦ B ≦ 1.2 μmol; C > 1.2 μmol; — = no fit; conditions: for IC50: FLIPR fluo-4, read-out: Orai1/STIM1 (IC50, μmol); for Orai1/STIM1 (IC50, μmol): FLIPR fluo-4
T1 construct: expressed in transfected cells; host or cells: HEK-293 cells stably expressing both proteins
T1 sequence (Q96D31 whole entry): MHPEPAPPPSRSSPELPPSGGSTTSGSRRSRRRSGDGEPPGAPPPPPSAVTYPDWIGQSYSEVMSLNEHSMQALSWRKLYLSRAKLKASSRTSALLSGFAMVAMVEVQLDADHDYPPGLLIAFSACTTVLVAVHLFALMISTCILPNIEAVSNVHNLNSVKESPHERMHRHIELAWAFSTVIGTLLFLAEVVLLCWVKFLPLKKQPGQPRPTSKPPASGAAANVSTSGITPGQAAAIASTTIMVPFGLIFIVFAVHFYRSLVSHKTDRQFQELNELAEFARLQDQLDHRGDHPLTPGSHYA
Experimental: A. Fluorescence-Based Assay of Store-Operated Calcium Entry in Orai1/STIM1 Stable Cells.
Cells stably expressing recombinant human STIM1 and Orai1 are generated by transfecting a human Orai1 expression plasmid (pcDNA3.1-Orai1-cmyc) into HEK-293 cells stably overexpressing human STIM1 (Roos et al. 2005 JCB 169(3): 435-445). Colonies of cells stably expressing both STIM1 and Orai1 proteins are selected and then subcloned by limiting dilution. Cells were cultured at 37° C./6% CO2 in complete medium with 10% FBS and appropriate selection markers.
The day prior to performing the assay Orai1/STIM1 stable cells are plated in 50 μL of complete medium at 90-95% confluence in a 384 well plate. Cells are grown at 37° C./6% CO2 overnight. On the day of the assay, 1.5 μM fluo-4-AM (Invitrogen) in complete medium is added to the cells, which are then incubated for 1 hour at RT. Cells are washed once in Ca^2+-free HBSS (Hank's buffered saline solution) and 35 μl of Ca^2+-free HBSS is added to each well. Test compounds are added to wells in a 10 μL Ca^2+-free HBSS solution, prepared at 4.5× the desired final concentration, and incubated for 30 minutes at RT. The initial baseline fluorescence signal is then measured with a FLIPR^384 (Molecular Devices) plate reader. Calcium entry is initiated by adding 5 μl of 10× CaCl2 (10 mM) in HBSS, and changes in cellular fluorescence are measured with the FLIPR^384 plate reader. In each well, the magnitude of the fluorescence signal as a result of calcium entry into the cell is determined by calculating the difference between the peak fluorescence signal measured after calcium addition and the initial baseline fluorescence signal (designated Peak-Basal). IC50 values are typically calculated as the concentration that inhibited 50% of the Peak-Basal signal (Table A).

[2] = test system: store-operated calcium entry in RBL-2H3 cells; assay: Fluorescence-based assay of store-operated calcium entry in RBL-2H3 cells; type: cell-based; conditions: Rattus norvegicus, thapsigargin, FLIPR Fluo-4, read-out: RBL-2H3 (IC50, μmol)
Experimental: B. Fluorescence-Based Assay of Store-Operated Calcium Entry in RBL-2H3 Cells.
RBL-2H3 cells are obtained from ATCC and maintained in complete medium with 10% FBS at 37° C./6% CO2.
The day prior to performing the assay, RBL-2H3 cells are plated in 50 μL of complete medium in a 384 well plate. Cells are grown at 37° C./6% CO2 overnight and grow to 50-60% confluence by the next day. On the assay day, 1.5 μM Fluo-4-AM dye (Invitrogen) in complete medium is added and incubated for 1 hour at RT. Cells are washed twice in Ca^2+-free HBSS buffer and 35 μL Ca^2+-free HBSS buffer is added to each well. 10 μL of a test compound prepared in a Ca^2+-free HBSS solution at 4.5× of the desired concentration is added to a well and incubated for 5 minutes at RT. 10 μL of thapsigargin prepared in a Ca^2+-free HBSS solution at 5.5× of the desired concentration (5.5 uM) is added to each well and incubated for an additional 25 minutes. The initial baseline fluorescence signal is measured with a FLIPR^384 (Molecular Devices) plate reader. 5 μL of 12× calcium in HBSS (12 mM) is added and changes in cellular fluorescence are measured with the FLIPR^384 plate reader. In each well, the change in the fluorescent signal as a function of time due to calcium entry into the cell is determined by calculating the difference between the fluorescent signal measured 7 seconds after calcium addition and the initial baseline fluorescence signal at time zero (t=0). This parameter is designated Upslope. The IC50 value is calculated as the concentration at which 50% of the Upslope is inhibited.

Structure (SMILES) | IC50 [1] | IC50 [2] | Orai1/STIM1 (IC50, μmol) [1]
Cn1cccc1C(=O)Nc1ccc(-c2cc3c(cc2Cl)OC(F)(F)O3)cn1 [Example 1, N-(5-(6-chloro-2,2-difluorobenzo[d][1,3]dioxol-5-yl)pyridin-2-yl)-1-methyl-1H-pyrrole-2-carboxamide] | 600 to 1200 nM | 600 to 1200 nM | 
Cc1nn(C)c(C(=O)Nc2ccc(-c3cc4c(cc3Cl)OC(F)(F)O4)cn2)c1Cl [Example 2, 4-chloro-N-(5-(6-chloro-2,2-difluorobenzo[d][1,3]dioxol-5-yl)pyridin-2-yl)-1,3-dimethyl-1H-pyrazole-5-carboxamide] | > 1200 nM | > 1200 nM | 
Cn1nc(C(F)(F)F)c(Cl)c1C(=O)Nc1ccc(-c2cc3c(cc2Cl)OC(F)(F)O3)cn1 [Example 3, 4-chloro-N-(5-(6-chloro-2,2-difluorobenzo[d][1,3]dioxol-5-yl)pyridin-2-yl)-1-methyl-3-(trifluoromethyl)-1H-pyrazole-5-carboxamide] |  | < 600 nM | —
Cn1ncc(C(=O)Nc2ccc(-c3cc4c(cc3Cl)OC(F)(F)O4)cn2)c1C(F)(F)F [Example 4, N-(5-(6-chloro-2,2-difluorobenzo[d][1,3]dioxol-5-yl)pyridin-2-yl)-1-methyl-5-(trifluoromethyl)-1H-pyrazole-4-carboxamide] |  | > 1200 nM | —
Cc1onc(C(=O)Nc2ccc(-c3cc4c(cc3Cl)OC(F)(F)O4)cn2)c1C [Example 5, N-(5-(6-chloro-2,2-difluorobenzo[d][1,3]dioxol-5-yl)pyridin-2-yl)-4,5-dimethylisoxazole-3-carboxamide] |  | 600 to 1200 nM | —
CCn1nc(C)cc1C(=O)Nc1ccc(-c2cc3c(cc2Cl)OC(F)(F)O3)cn1 [Example 6, N-(5-(6-chloro-2,2-difluorobenzo[d][1,3]dioxol-5-yl)pyridin-2-yl)-1-ethyl-3-methyl-1H-pyrazole-5-carboxamide] | > 1200 nM | > 1200 nM | 
Cc1cc(C(=O)Nc2ccc(-c3cc4c(cc3Cl)OC(F)(F)O4)cn2)n(C)n1 [Example 7, N-(5-(6-chloro-2,2-difluorobenzo[d][1,3]dioxol-5-yl)pyridin-2-yl)-1,3-dimethyl-1H-pyrazole-5-carboxamide] | 600 to 1200 nM | > 1200 nM | 
Cn1cc(Cl)c(C(=O)Nc2ccc(-c3cc4c(cc3Cl)OC(F)(F)O4)cn2)n1 [Example 8, 4-chloro-N-(5-(6-chloro-2,2-difluorobenzo[d][1,3]dioxol-5-yl)pyridin-2-yl)-1-methyl-1H-pyrazole-3-carboxamide] | > 1200 nM | > 1200 nM | 
Cn1ncc(Cl)c1C(=O)Nc1ccc(-c2cc3c(cc2Cl)OC(F)(F)O3)cn1 [Example 9, 4-chloro-N-(5-(6-chloro-2,2-difluorobenzo[d][1,3]dioxol-5-yl)pyridin-2-yl)-1-methyl-1H-pyrazole-5-carboxamide] | 600 to 1200 nM | < 600 nM | 
Cc1oncc1C(=O)Nc1ccc(-c2cc3c(cc2Cl)OC(F)(F)O3)cn1 [Example 10, N-(5-(6-chloro-2,2-difluorobenzo[d][1,3]dioxol-5-yl)pyridin-2-yl)-5-methylisoxazole-4-carboxamide] |  |  | —
Cc1noc(C)c1C(=O)Nc1ccc(-c2cc3c(cc2Cl)OC(F)(F)O3)cn1 [Example 11, N-(5-(6-chloro-2,2-difluorobenzo[d][1,3]dioxol-5-yl)pyridin-2-yl)-3,5-dimethylisoxazole-4-carboxamide] | < 600 nM | < 600 nM | 
CCn1nccc1C(=O)Nc1ccc(-c2cc3c(cc2Cl)OC(F)(F)O3)cn1 [Example 12, N-(5-(6-chloro-2,2-difluorobenzo[d][1,3]dioxol-5-yl)pyridin-2-yl)-1-ethyl-1H-pyrazole-5-carboxamide] | 600 to 1200 nM | 600 to 1200 nM | 
O=C(Nc1ccc(-c2cc3c(cc2Cl)OC(F)(F)O3)cn1)c1ccnn1C(F)F [Example 13, N-(5-(6-chloro-2,2-difluorobenzo[d][1,3]dioxol-5-yl)pyridin-2-yl)-1-(difluoromethyl)-1H-pyrazole-5-carboxamide] | 600 to 1200 nM | > 1200 nM | 
CCc1nnsc1C(=O)Nc1ccc(-c2cc3c(cc2Cl)OC(F)(F)O3)cn1 [Example 14, N-(5-(6-chloro-2,2-difluorobenzo[d][1,3]dioxol-5-yl)pyridin-2-yl)-4-ethyl-1,2,3-thiadiazole-5-carboxamide] | < 600 nM | < 600 nM | 
Cc1nscc1C(=O)Nc1ccc(-c2cc3c(cc2Cl)OC(F)(F)O3)cn1 [Example 15, N-(5-(6-chloro-2,2-difluorobenzo[d][1,3]dioxol-5-yl)pyridin-2-yl)-3-methylisothiazole-4-carboxamide] | < 600 nM | < 600 nM | 
O=C(Nc1ccc(-c2cc3c(cc2Cl)OC(F)(F)O3)cn1)c1nsc(Cl)c1Cl [Example 16, 4,5-dichloro-N-(5-(6-chloro-2,2-difluorobenzo[d][1,3]dioxol-5-yl)pyridin-2-yl)isothiazole-3-carboxamide] |  | > 1200 nM | —
Cc1nc(C(F)(F)F)c(C(=O)Nc2ccc(-c3cc4c(cc3Cl)OC(F)(F)O4)cn2)s1 [Example 17, N-(5-(6-chloro-2,2-difluorobenzo[d][1,3]dioxol-5-yl)pyridin-2-yl)-2-methyl-4-(trifluoromethyl)thiazole-5-carboxamide] | > 1200 nM | < 600 nM | 
Cc1nc(C(=O)Nc2ccc(-c3cc4c(cc3Cl)OC(F)(F)O4)cn2)c(C(F)(F)F)o1 [Example 19, N-(5-(6-chloro-2,2-difluorobenzo[d][1,3]dioxol-5-yl)pyridin-2-yl)-2-methyl-5-(trifluoromethyl)oxazole-4-carboxamide] |  |  | —
Cc1nc(C)c(C(=O)Nc2ccc(-c3cc4c(cc3Cl)OC(F)(F)O4)cn2)o1 [Example 21, N-(5-(6-chloro-2,2-difluorobenzo[d][1,3]dioxol-5-yl)pyridin-2-yl)-2,4-dimethyloxazole-5-carboxamide] | > 1200 nM |  | 
Cn1ncc(C(=O)Nc2cnc(-c3cc4c(cc3Cl)OC(F)(F)O4)cn2)c1C(F)(F)F [Example 22, N-(5-(6-chloro-2,2-difluorobenzo[d][1,3]dioxol-5-yl)pyrazin-2-yl)-1-methyl-5-(trifluoromethyl)-1H-pyrazole-4-carboxamide] |  |  | —
Cc1nn(C)c(C(=O)Nc2cnc(-c3cc4c(cc3Cl)OC(F)(F)O4)cn2)c1Cl [Example 23, 4-chloro-N-(5-(6-chloro-2,2-difluorobenzo[d][1,3]dioxol-5-yl)pyrazin-2-yl)-1,3-dimethyl-1H-pyrazole-5-carboxamide] |  |  | —
CCn1nc(C)cc1C(=O)Nc1cnc(-c2cc3c(cc2Cl)OC(F)(F)O3)cn1 [Example 26] |  | > 1200 nM | 
Cn1cc(Cl)c(C(=O)Nc2cnc(-c3cc4c(cc3Cl)OC(F)(F)O4)cn2)n1 [Example 28, 4-chloro-N-(5-(6-chloro-2,2-difluorobenzo[d][1,3]dioxol-5-yl)pyrazin-2-yl)-1-methyl-1H-pyrazole-3-carboxamide] |  |  | —
Cc1oncc1C(=O)Nc1cnc(-c2cc3c(cc2Cl)OC(F)(F)O3)cn1 [Example 30, N-(5-(6-chloro-2,2-difluorobenzo[d][1,3]dioxol-5-yl)pyrazin-2-yl)-5-methylisoxazole-4-carboxamide] |  |  | —
Cc1cc2c(cc1-c1cnc(NC(=O)c3c(Cl)c(C)nn3C)cn1)OC(F)(F)O2 [Example 36, 4-chloro-N-(5-(2,2-difluoro-6-methylbenzo[d][1,3]dioxol-5-yl)pyrazin-2-yl)-1,3-dimethyl-1H-pyrazole-5-carboxamide] |  |  | —
